Measurements as given in patent US20100267561A1, “HERBICIDAL PYRIDAZINONE DERIVATIVES” (priority 2007, published 2010).

What was measured:
Assay in all cases: Test B pre-/postemergence plant response
Assay type in all cases: in vivo
[1] = system: Italian ryegrass (Lolium multiflorum); conditions: for Ryegrass, Italian plant response rating: 8 g ai/ha
Summary of the method: (§1)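 Visual scoring from 0 (no effect) to 100 (complete control) against untreated controls was done 13 to 15 days after greenhouse treatment. Chemicals were formulated in a surfactant-containing non-phytotoxic solvent and applied to soil preemergence or to 1- to 4-leaf (2-18 cm) plants postemergence.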

[2] = system: bermudagrass (Cynodon dactylon); conditions: for Bermudagrass plant response rating: 8 g ai/ha
Summary of the method: as §1

[3] = system: cocklebur (Xanthium strumarium); conditions: for Cocklebur plant response rating: 8 g ai/ha
Summary of the method: as §1

[4] = system: common (oilseed) sunflower (Helianthus annuus); conditions: Preemergence
Summary of the method: as §1

[5] = system: common ragweed (Ambrosia elation); conditions: for Ragweed plant response rating: 8 g ai/ha
Summary of the method: as §1

[6] = system: goosegrass (Eleusine indica); conditions: for Goosegrass plant response rating: 8 g ai/ha
Summary of the method: as §1

[7] = system: johnsongrass (Sorghum halepense); conditions: for Johnsongrass plant response rating: 8 g ai/ha
Summary of the method: as §1

kochia (Kochia scoparia) = conditions: for Kochia plant response rating: 8 g ai/ha
Summary of the method: as §1

[8] = system: lambsquarters (Chenopodium album); conditions: for Lambsquarters plant response rating: 8 g ai/ha
Summary of the method: as §1

[9] = system: morningglory (Ipomoea coccinea); conditions: for Morningglory plant response rating: 8 g ai/ha
Summary of the method: as §1

soybean (Glycine max) = conditions: for Soybean plant response rating: 8 g ai/ha
Summary of the method: as §1

[10] = system: surinam grass (Brachiaria decumbens); conditions: for Surinam Grass plant response rating: 8 g ai/ha
Summary of the method: as §1

[11] = system: velvetleaf (Abutilon theophrasti); conditions: for Velvetleaf plant response rating: 8 g ai/ha
Summary of the method: as §1

[12] = system: wheat (Triticum aestivum); conditions: for Wheat plant response rating: 8 g ai/ha
Summary of the method: as §1

[13] = Postemergence, 16 g ai/ha, scale 0 to 100
[14] = Postemergence, 31 g ai/ha, scale 0 to 100, 0 no effect, 100 complete control
[15] = Postemergence, 62 g ai/ha, scale 0 to 100, 0 no effect, 100 complete control
[16] = Preemergence, 16 g ai/ha, scale 0 to 100 (0 no effect, 100 complete control)
[17] = Preemergence, 31 g ai/ha, 0 to 100 scale, 0 no effect, 100 complete control
[18] = Preemergence, 62 g ai/ha, scale 0 to 100

COC(=O)Oc1cnn(C)c(=O)c1-n1nc(-c2ccc(Cl)cc2)cc1C [Compound 33]
Ryegrass, Italian plant response rating ([1]; postemergence, 0-100 scale): 75
Plant response rating, Ryegrass, Italian [1, 13]: 80
Plant response rating, Ryegrass, Italian [1, 14]: 100
Plant response rating, Ryegrass, Italian [1, 15]: 100
Plant response rating, Ryegrass, Italian [1, 16]: 95
Plant response rating, Ryegrass, Italian [1, 17]: 95
Plant response rating, Ryegrass, Italian [1, 18]: 98
Ryegrass, Italian plant response rating ([1]; Preemergence, scale 0 to 100): 85
Bermudagrass plant response rating ([2]; postemergence, 0-100 scale): 70
Plant response rating, Bermudagrass [2, 13]: 100
Plant response rating, Bermudagrass [2, 14]: 100
Plant response rating, Bermudagrass [2, 15]: 100
Bermudagrass plant response rating ([2]; Preemergence, scale 0 to 100 (0 no effect, 100 complete control)): 80
Plant response rating, Bermudagrass [2, 16]: 98
Plant response rating, Bermudagrass [2, 17]: 100
Plant response rating, Bermudagrass [2, 18]: 100
Cocklebur plant response rating ([3]; postemergence, 0-100 scale): 0
Plant response rating, Cocklebur [3, 13]: 0
Plant response rating, Cocklebur [3, 14]: 0
Plant response rating, Cocklebur [3, 15]: 0
Plant response rating, Cocklebur [3, 16]: 0
Plant response rating, Cocklebur [3, 17]: 0
Cocklebur plant response rating ([3]; Preemergence, scale 0 to 100): 0
Plant response rating, Sunflower ([4]; 16 g ai/ha, scale 0 to 100 (0 no effect, 100 complete control)): 0
Plant response rating, Sunflower ([4]; 31 g ai/ha, 0 to 100 scale, 0 no effect, 100 complete control): 0
Plant response rating, Sunflower ([4]; 62 g ai/ha, scale 0 to 100): 0
Sunflower plant response rating ([4]; 8 g ai/ha, scale 0 to 100): 0
Ragweed plant response rating ([5]; postemergence, 0-100 scale): 0
Plant response rating, Ragweed [5, 13]: 0
Plant response rating, Ragweed [5, 14]: 0
Plant response rating, Ragweed [5, 15]: 0
Plant response rating, Ragweed [5, 16]: 0
Plant response rating, Ragweed [5, 17]: 0
Plant response rating, Ragweed [5, 18]: 0
Ragweed plant response rating ([5]; Preemergence, scale 0 to 100): 0
Goosegrass plant response rating ([6]; postemergence, 0-100 scale): 50
Plant response rating, Goosegrass [6, 13]: 70
Plant response rating, Goosegrass [6, 14]: 90
Plant response rating, Goosegrass [6, 15]: 100
Plant response rating, Goosegrass [6, 16]: 98
Plant response rating, Goosegrass [6, 17]: 98
Plant response rating, Goosegrass [6, 18]: 98
Goosegrass plant response rating ([6]; Preemergence, scale 0 to 100): 85
Johnsongrass plant response rating ([7]; postemergence, 0-100 scale): 70
Plant response rating, Johnsongrass [7, 13]: 70
Plant response rating, Johnsongrass [7, 14]: 85
Plant response rating, Johnsongrass [7, 15]: 90
Plant response rating, Johnsongrass [7, 16]: 95
Plant response rating, Johnsongrass [7, 17]: 98
Plant response rating, Johnsongrass [7, 18]: 100
Johnsongrass plant response rating ([7]; Preemergence, scale 0 to 100): 60
Kochia plant response rating (kochia (Kochia scoparia); postemergence, 0-100 scale): 0
Plant response rating, Kochia (kochia (Kochia scoparia); [13]): 0
Plant response rating, Kochia (kochia (Kochia scoparia); [14]): 0
Plant response rating, Kochia (kochia (Kochia scoparia); [15]): 0
Plant response rating, Kochia (kochia (Kochia scoparia); [17]): 0
Plant response rating, Kochia (kochia (Kochia scoparia); [18]): 0
Kochia plant response rating (kochia (Kochia scoparia); Preemergence, scale 0 to 100): 0
Lambsquarters plant response rating ([8]; postemergence, 0-100 scale): 0
Plant response rating, Lambsquarters [8, 13]: 0
Plant response rating, Lambsquarters [8, 14]: 0
Plant response rating, Lambsquarters [8, 15]: 0
Plant response rating, Lambsquarters [8, 16]: 0
Plant response rating, Lambsquarters [8, 17]: 0
Plant response rating, Lambsquarters [8, 18]: 0
Lambsquarters plant response rating ([8]; Preemergence, scale 0 to 100): 0
Morningglory plant response rating ([9]; postemergence, 0-100 scale): 0
Plant response rating, Morningglory [9, 13]: 0
Plant response rating, Morningglory [9, 14]: 0
Plant response rating, Morningglory [9, 15]: 0
Plant response rating, Morningglory [9, 16]: 0
Plant response rating, Morningglory [9, 17]: 0
Plant response rating, Morningglory [9, 18]: 0
Morningglory plant response rating ([9]; Preemergence, scale 0 to 100): 0
Soybean plant response rating (soybean (Glycine max); postemergence, 0-100 scale): 0
Plant response rating, Soybean (soybean (Glycine max); [13]): 0
Plant response rating, Soybean (soybean (Glycine max); [15]): 0
Plant response rating, Soybean (soybean (Glycine max); [16]): 0
Plant response rating, Soybean (soybean (Glycine max); [17]): 0
Plant response rating, Soybean (soybean (Glycine max); [18]): 0
Soybean plant response rating (soybean (Glycine max); Preemergence, scale 0 to 100): 0
Surinam Grass plant response rating ([10]; postemergence, 0-100 scale): 85
Plant response rating, Surinam Grass [10, 13]: 100
Plant response rating, Surinam Grass [10, 15]: 100
Plant response rating, Surinam Grass [10, 16]: 90
Plant response rating, Surinam Grass [10, 17]: 98
Plant response rating, Surinam Grass [10, 18]: 100
Surinam Grass plant response rating ([10]; Preemergence, scale 0 to 100): 75
Velvetleaf plant response rating ([11]; postemergence, 0-100 scale): 0
Plant response rating, Velvetleaf [11, 13]: 0
Plant response rating, Velvetleaf [11, 15]: 5
Plant response rating, Velvetleaf [11, 16]: 0
Plant response rating, Velvetleaf [11, 17]: 0
Velvetleaf plant response rating ([11]; Preemergence, scale 0 to 100): 0
Wheat plant response rating ([12]; postemergence, 0-100 scale): 20
Plant response rating, Wheat [12, 13]: 70
Plant response rating, Wheat [12, 15]: 98
Plant response rating, Wheat [12, 16]: 0
Plant response rating, Wheat [12, 17]: 50
Plant response rating, Wheat [12, 18]: 80
Wheat plant response rating ([12]; Preemergence, scale 0 to 100): 0
